Laboratory results from patent publication US20070093520A1, “Method of treatment of diarrhea-predominant irritable bowel syndrome in a subject” (priority 2005, published 2007).

System: diarrhea-predominant IBS subjects
Experiment: 3007 Study: open-label 52-week safety study, adverse events and withdrawals
Settings: P/C group

Cc1nccn1C[C@H]1CCc2c(c3cccc4c3n2CCC4)C1=O [cilansetron, (R)-(−)-4,5,6,8,9,10-hexahydro-10-[(2-methyl-1H-imidazol-1-yl)methyl]-11H-pyrido-[3,2,1-jk]-carbazol-11-one]
TEAE: Dyspnoea NOS: 1 (<1%) n (%) | TEAE: Dysuria: 0 n (%) | TEAE: Ear Disorders NEC: 1 (<1%) n (%) | TEAE: Ear Pain: 1 (<1%) n (%) | TEAE: Ear and Labyrinth Disorders: 4 (1%) n (%) | TEAE: Eczema: 1 (<1%) n (%) | TEAE: Elevated Cholesterol: 3 (1%) n (%) | TEAE: Endocrine Disorders: 2 (<1%) n (%) | TEAE: Endometriosis*: 0 n (%) | TEAE: Erythema: 0 n (%) | TEAE: Erythemas: 0 n (%) | TEAE: External Ear Disorders NEC: 0 n (%) | TEAE: Eye Disorders: 5 (2%) n (%) | TEAE: Fall: 2 (<1%) n (%) | TEAE: Fatigue: 6 (2%) n (%) | TEAE: Fatigue Aggravated: 0 n (%) | TEAE: Febrile Disorders: 1 (<1%) n (%) | TEAE: Fibroma NOS: 1 (<1%) n (%) | TEAE: Fluid Intake Increased: 1 (<1%) n (%) | TEAE: Fluid in Middle Ear: 0 n (%) | TEAE: Flushing: 0 n (%) | TEAE: Food Allergy: 1 (<1%) n (%) | TEAE: General Disorders and Administration Site Conditions: 19 (7%) n (%) | TEAE: General Signs and Symptoms NEC: 3 (1%) n (%) | TEAE: Gilbert's Syndrome: 1 (<1%) n (%) | TEAE: Glucose Tolerance Impaired: 1 (<1%) n (%) | TEAE: Glycosuria: 1 (<1%) n (%) | TEAE: Goitre: 0 n (%) | TEAE: Gout: 0 n (%) | TEAE: Haematoma NOS: 0 n (%) | TEAE: Haematuria: 0 n (%) | TEAE: Hallucination NOS: 1 (<1%) n (%) | TEAE: Hallucination, Auditory: 1 (<1%) n (%) | TEAE: Hand Fracture: 1 (<1%) n (%) | TEAE: Hearing Losses: 0 n (%) | TEAE: Hepatitis NOS: 0 n (%) | TEAE: Hepatobiliary Disorders: 1 (<1%) n (%) | TEAE: Hepatobiliary Signs and Symptoms: 0 n (%) | TEAE: Hepatocellular Damage and Hepatitis NEC: 0 n (%) | TEAE: Hepatosplenomegaly NOS: 0 n (%) | TEAE: Hernia NOS: 1 (<1%) n (%) | TEAE: Hernia Repair NOS: 0 n (%) | TEAE: Hernia Repairs: 0 n (%) | TEAE: Hernias NEC: 1 (<1%) n (%) | TEAE: Hot Flushes NOS: 0 n (%) | TEAE: Hypercholesterolaemia: 3 (1%) n (%) | TEAE: Hyperglycaemia NOS: 3 (1%) n (%) | TEAE: Hyperglycaemic Conditions NEC: 4 (1%) n (%) | TEAE: Hyperkeratoses: 1 (<1%) n (%) | TEAE: Hyperkeratosis: 1 (<1%) n (%) | TEAE: Hyperlipidaemia NOS: 0 n (%) | TEAE: Hyperlipidaemias NEC: 0 n (%) | TEAE: Hypersensitivity NOS: 1 (<1%) n (%) | TEAE: Hypertension Aggravated: 1 (<1%) n (%) | TEAE: Hypertension NOS: 6 (2%) n (%) | TEAE: Hypotension NOS: 1 (<1%) n (%) | TEAE: Immune System Disorders: 4 (1%) n (%) | TEAE: Inborn Errors of Bilirubin Metabolism: 1 (<1%) n (%) | TEAE: Influenza Like Illness: 1 (<1%) n (%) | TEAE: Ingrowing Nail: 1 (<1%) n (%) | TEAE: Inner Ear Disorders NEC: 0 n (%) | TEAE: Inner Ear Infections and Inflammations: 1 (<1%) n (%) | TEAE: Inner Ear Signs and Symptoms: 2 (<1%) n (%) | TEAE: Insomnia: 0 n (%) | TEAE: Insomnia Exacerbated: 0 n (%) | TEAE: Intermenstrual Bleeding*: 0 n (%) | TEAE: Irritability: 1 (<1%) n (%) | TEAE: Ischaemic Coronary Artery Disorders: 0 n (%) | TEAE: Labyrinthitis NOS: 1 (<1%) n (%) | TEAE: Lacrimal Disorders: 0 n (%) | TEAE: Lactose Intolerance: 1 (<1%) n (%) | TEAE: Laryngeal and Adjacent Sites Disorders NEC (Excl Infections and Neoplasms): 1 (<1%) n (%) | TEAE: Laryngitis NOS: 1 (<1%) n (%) | TEAE: Leiomyoma NOS: 0 n (%) | TEAE: Lethargy: 1 (<1%) n (%) | TEAE: Leukopenia NOS: 0 n (%) | TEAE: Leukopenias NEC: 0 n (%) | TEAE: Libido Decreased: 1 (<1%) n (%) | TEAE: Lid, Lash and Lacrimal Structural Disorders (Excl Congenital): 0 n (%) | TEAE: Lipid Metabolism Disorder NOS: 0 n (%) | TEAE: Lipid Metabolism and Deposit Disorders NEC: 0 n (%) | TEAE: Lipoma NOS: 0 n (%) | TEAE: Lower Respiratory Tract Signs and Symptoms: 1 (<1%) n (%) | TEAE: Lymphadenopathy: 1 (<1%) n (%) | TEAE: Lymphangitis and Lymphatic Disorders NEC: 1 (<1%) n (%) | TEAE: Meniere's Disease: 0 n (%) | TEAE: Menorrhagia*: 1 (<1%) n (%) | TEAE: Menstruation Irregular*: 1 (<1%) n (%) | TEAE: Menstruation and Uterine Bleeding NEC*: 1 (<1%) n (%) | TEAE: Menstruation with Decreased Bleeding*: 0 n (%) | TEAE: Menstruation with Increased Bleeding*: 1 (<1%) n (%) | TEAE: Mental Disorders NEC: 1 (<1%) n (%) | TEAE: Mental Status Changes: 1 (<1%) n (%) | TEAE: Metabolism and Nutrition Disorders: 10 (4%) n (%) | TEAE: Middle Ear Disorders NEC: 0 n (%) | TEAE: Motion Sickness: 1 (<1%) n (%) | TEAE: Myocardial Infarction: 0 n (%) | TEAE: Nail and Nail Bed Conditions (Excl Infections and Infestations): 1 (<1%) n (%) | TEAE: Nasal Congestion and Inflammations: 1 (<1%) n (%) | TEAE: Neoplasms Benign Site Unspecified NEC: 1 (<1%) n (%) | TEAE: Neoplasms Benign, Malignant and Unspecified (Incl Cysts and Polyps): 6 (2%) n (%) | TEAE: Normal Pregnancy, Labour and Delivery*: 0 n (%) | TEAE: Ocular Disorders NEC: 1 (<1%) n (%) | TEAE: Ocular Nerve and Muscle Disorders: 2 (<1%) n (%) | TEAE: Oedema NEC: 3 (1%) n (%) | TEAE: Oedema NOS: 1 (<1%) n (%) | TEAE: Oedema Peripheral: 2 (<1%) n (%) | TEAE: Ovarian Cancer NOS*: 0 n (%) | TEAE: Ovarian Cystadenofibroma*: 1 (<1%) n (%) | TEAE: Ovarian Neoplasms Benign*: 1 (<1%) n (%) | TEAE: Ovarian Neoplasms Malignant (Excl Germ Cell)*: 0 n (%) | TEAE: Pain NOS: 1 (<1%) n (%) | TEAE: Pain and Discomfort NEC: 7 (3%) n (%) | TEAE: Palpitations: 2 (<1%) n (%) | TEAE: Panic Attack: 1 (<1%) n (%) | TEAE: Panic Symptoms: 1 (<1%) n (%) | TEAE: Papulosquamous Conditions: 1 (<1%) n (%) | TEAE: Paranasal Sinus Disorders (Excl Infections and Neoplasms): 3 (1%) n (%) | TEAE: Paranasal Sinus Hypersecretion: 0 n (%) | TEAE: Partial Vision Loss: 1 (<1%) n (%) | TEAE: Pelvic Pain NOS: 2 (<1%) n (%) | TEAE: Penile Disorders NEC (Excl Erection and Ejaculation)*: 1 (1%) n (%) | TEAE: Penile Haemorrhage*: 1 (1%) n (%) | TEAE: Perception Disturbances: 1 (<1%) n (%) | TEAE: Peripheral Embolism NOS: 1 (<1%) n (%) | TEAE: Peripheral Embolism and Thrombosis: 1 (<1%) n (%) | TEAE: Peripheral Vascular Disorders NEC: 0 n (%) | TEAE: Pharyngitis: 3 (1%) n (%) | TEAE: Polydipsia: 1 (<1%) n (%) | TEAE: Polyuria: 1 (<1%) n (%) | TEAE: Posterior Capsule Opacification: 1 (<1%) n (%) | TEAE: Postnasal Drip: 1 (<1%) n (%) | TEAE: Pregnancy NOS*: 0 n (%) | TEAE: Pregnancy, Puerperium and Perinatal Conditions: 0 n (%) | TEAE: Premenopause*: 1 (<1%) n (%) | TEAE: Premenstrual Syndrome*: 0 n (%) | TEAE: Productive Cough: 0 n (%) | TEAE: Prostate and Seminal Vesicles Infections and Inflammations*: 1 (1%) n (%) | TEAE: Prostatitis*: 1 (1%) n (%) | TEAE: Proteinuria: 0 n (%) | TEAE: Pruritus NEC: 1 (<1%) n (%) | TEAE: Pruritus NOS: 1 (<1%) n (%) | TEAE: Psoriasis: 1 (<1%) n (%) | TEAE: Psychiatric Disorders: 17 (6%) n (%) | TEAE: Psychotic Disorder NEC: 1 (<1%) n (%) | TEAE: Psychotic Disorder NOS: 1 (<1%) n (%) | TEAE: Purine Metabolism Disorders NEC: 0 n (%) | TEAE: Pyrexia: 1 (<1%) n (%) | TEAE: Rash Macular: 2 (<1%) n (%) | TEAE: Rash NOS: 2 (<1%) n (%) | TEAE: Rashes, Eruptions and Exanthems NEC: 4 (1%) n (%) | TEAE: Rate and Rhythm Disorders NEC: 2 (<1%) n (%) | TEAE: Refractive Errors NOS: 0 n (%) | TEAE: Refractive and Accommodative Disorders: 0 n (%) | TEAE: Renal Lithiasis: 0 n (%) | TEAE: Renal and Urinary Disorders: 4 (1%) n (%) | TEAE: Reproductive System and Breast Disorders: 12 (4%) n (%) | TEAE: Reproductive Tract Signs and Symptoms NEC: 2 (<1%) n (%) | TEAE: Respiratory Tract Congestion: 1 (<1%) n (%) | TEAE: Respiratory Tract Disorders NEC: 1 (<1%) n (%) | TEAE: Respiratory, Thoracic and Mediastinal Disorders: 18 (6%) n (%) | TEAE: Retinal Detachment: 0 n (%) | TEAE: Retinal Structural Change, Deposit and Degeneration: 0 n (%) | TEAE: Rhinitis Allergic NOS: 1 (<1%) n (%) | TEAE: Rhinitis NOS: 0 n (%) | TEAE: Rhinitis Seasonal: 0 n (%) | TEAE: Rosacea: 0 n (%) | TEAE: Rosaceas: 0 n (%) | TEAE: Seasonal Allergy: 1 (<1%) n (%)
